Reference: patent publication US20220298138A1, “ENZYME INHIBITORS” (KALVISTA PHARMACEUTICALS LIMITED, priority 2019, published 2022)
Read-outs that look alike come from different tables or passages of the source.

Target: T1, Human Factor XIIa (Homo sapiens, UniProt P00748)
T1 construct: purchased Enzyme Research Laboratories
T1 sequence (P00748 373-615 limits assumed): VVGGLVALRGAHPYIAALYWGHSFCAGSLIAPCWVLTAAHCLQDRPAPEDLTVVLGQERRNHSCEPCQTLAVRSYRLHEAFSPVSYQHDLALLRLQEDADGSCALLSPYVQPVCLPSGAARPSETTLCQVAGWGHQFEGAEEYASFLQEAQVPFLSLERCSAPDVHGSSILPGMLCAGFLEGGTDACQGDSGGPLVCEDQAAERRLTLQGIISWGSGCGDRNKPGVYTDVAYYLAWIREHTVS
Experiment: Factor XIIa inhibitory activity in vitro (fluorogenic substrate H-DPro-Phe-Arg-AFC)
Assay type: biochemical
Conditions: 25° C., read-out: Human FXIIa IC50
Protocol: Determination of the % Inhibition for FXIIa
Human Factor XIIa (Enzyme Research Laboratories) was incubated at 25° C. with the fluorogenic substrate H-DPro-Phe-Arg-AFC and various concentrations of the test compound. Residual enzyme activity (initial rate of reaction) was determined by measuring the change in […] at 410 nm and the IC50 value for the test compound was determined.

Row | IC50 (class symbols) | IC50 (numeric bound instead of class symbol) | SMILES
1 | 1 to 3 µM | – | CN(C)C(C)(C)C(=O)N[C@@H](Cc1ccc(F)c(F)c1)C(=O)NCc1ccc2c(N)nccc2c1 [Example 0.86]
2 | 0.28 to 1 µM | – | CC(C)(NC(=O)[C@H](N)CCc1ccccc1)C(=O)NCc1ccc2c(N)nccc2c1 [Example 6.06]
3 | 3 to 10 µM | – | Nc1nccc2cc(CNC(=O)[C@H](Cc3ccc(F)c(F)c3)NC(=O)c3ccncn3)ccc12 [Example 0.71]
4 | 3 to 10 µM | – | Nc1nccc2cc(CNC(=O)[C@H](Cc3ccc(F)c(F)c3)NC(=O)c3ccc(O)nc3)ccc12 [Example 0.62]
5 | 3 to 10 µM | – | CS(=O)(=O)c1cccc(CC(=O)N[C@@H](Cc2ccc(F)c(F)c2)C(=O)NCc2ccc3c(N)nccc3c2)c1 [Example 3.24]
6 | 10 to 40 µM | – | N#Cc1ccccc1CN[C@@H](Cc1ccc(F)c(F)c1)C(=O)NCc1ccc2c(N)nccc2c1 [Example 55.03]
7 | 0.1 to 0.279 µM | – | C[C@@H]1CCC[C@H](C)N1CC(=O)N[C@@H](Cc1ccccc1)C(=O)NCc1ccc2c(N)nccc2c1 [Example 3.11]
8 | 1 to 3 µM | – | C[C@@H]1CCC[C@H](C)N1CC(=O)N[C@@H](CCc1ccccc1)C(=O)NCc1ccc2c(N)nccc2c1 [Example 3.15]
9 | 3 to 10 µM | – | N[C@H](CCCCN1CCOCC1)C(=O)N1CC[C@H]1C(=O)NCc1ccc2[nH]cc(Cl)c2c1 [Example 10.19]
10 | 10 to 40 µM | – | Cc1ccc2cc(C(=O)N3CCC(C(=O)NCc4ccc5c(N)nccc5c4)C3)ccc2n1 (centres unmarked) [Example 32.01]
11 | 0.1 to 0.279 µM | – | C[C@@H]1CCC[C@H](C)N1CC(=O)N[C@@H](Cc1cccc(Cl)c1)C(=O)NCc1ccc2c(N)nccc2c1 [Example 3.13]
12 | 10 to 40 µM | – | Nc1nccc2cc(CNC(=O)[C@H](Cc3ccc(F)c(F)c3)NC(=O)COc3cccnc3)ccc12 [Example 20.02]
13 | 3 to 10 µM | – | Nc1nccc2cc(CNC(=O)[C@H](Cc3ccc(F)c(F)c3)NC(=O)c3cccc(-n4cccn4)c3)ccc12 [Example 0.05]
14 | 3 to 10 µM | – | CC[C@H](NC(=O)CN1[C@H](C)CCC[C@@H]1C)C(=O)NCc1ccc2c(N)nccc2c1 [Example 3.22]
15 | 3 to 10 µM | – | Cc1cc(C(=O)N[C@@H](Cc2ccc(F)c(F)c2)C(=O)NCc2ccc3c(N)nccc3c2)n[nH]1 [Example 0.14]
16 | 10 to 40 µM | – | Nc1nccc2cc(CNC(=O)[C@H](Cc3ccc(F)c(F)c3)NC(=O)c3ccncc3)ccc12 [Example 0.35]
17 | 0.03 to 0.1 µM | – | C[C@@H]1CCC[C@H](C)N1CC(=O)N[C@@H](Cc1csc2ccccc12)C(=O)NCc1ccc2c(N)nccc2c1 [Example 3.10]
18 | 10 to 40 µM | – | Nc1nccc2cc(CNC(=O)[C@H](Cc3ccc(F)c(F)c3)NC(=O)Cc3cccnc3)ccc12 [Example 3.23]
19 | 10 to 40 µM | – | C[C@@H]1CCC[C@H](C)N1CC(=O)N1CCC[C@H]1C(=O)NCc1ccc2c(N)nccc2c1 [Example 32.02]
20 | 10 to 40 µM | – | Cn1cncc1C(=O)N[C@@H](Cc1ccc(F)c(F)c1)C(=O)NCc1ccc2c(N)nccc2c1 [Example 0.69]
21 | 10 to 40 µM | – | Nc1nccc2cc(CNC(=O)[C@H](Cc3ccc(F)c(F)c3)NC(=O)C[C@H]3CCCO3)ccc12 [Example 3.36]
22 | 3 to 10 µM | – | CC(C)(C)OC(=O)N[C@H](CCc1ccccc1)C(=O)N1CCC[C@H]1C(=O)NCc1ccc2c(N)nccc2c1 [Example 17.01]

Row | IC50 (class symbols) | IC50 (numeric bound instead of class symbol) | SMILES
23 | 3 to 10 µM | – | Nc1nccc2cc(CNC(=O)[C@H](Cc3ccc(F)c(F)c3)NC(=O)c3ccc[nH]c3=O)ccc12 [Example 0.13]
24 | 10 to 40 µM | – | Nc1nccc2cc(CNC(=O)[C@H](Cc3ccc(F)c(F)c3)NC(=O)c3cccnc3N3CCOCC3)ccc12 [Example 0.45]
25 | 3 to 10 µM | – | COc1cncc(C(=O)N[C@@H](Cc2ccc(F)c(F)c2)C(=O)NCc2ccc3c(N)nccc3c2)c1 [Example 0.12]
26 | 0.28 to 1 µM | – | C[C@@H]1CCC[C@H](C)N1[C@H](C)C(=O)N[C@@H](Cc1ccc(F)c(F)c1)C(=O)NCc1ccc2c(N)nccc2c1 [Example 5.105]
27 | 3 to 10 µM | – | Nc1nccc2cc(CNC(=O)[C@H](Cc3ccc(F)c(F)c3)NC(=O)c3cncnc3)ccc12 [Example 0.20]
28 | 10 to 40 µM | – | Nc1nccc2cc(CNC(=O)[C@H](Cc3ccc(F)c(F)c3)NC(=O)c3ccsc3)ccc12 [Example 0.77]
29 | 10 to 40 µM | – | CC(C)(C)OC(=O)N[C@H](CCc1ccccc1)C(=O)NC(C)(C)C(=O)NCc1ccc2c(N)nccc2c1 [Example 6.03]
30 | 10 to 40 µM | – | C[C@@H]1CCC[C@H](C)N1CC(=O)NC(C)(C)C(=O)NCc1ccc2c(N)nccc2c1 [Example 39.08]
31 | 3 to 10 µM | – | C[C@H](NC(=O)[C@@H](CCc1ccccc1)NC1CCOCC1)C(=O)NCc1ccc2[nH]cc(Cl)c2c1 [Example 9.17]
32 | 1 to 3 µM | – | CN(C)CC(=O)N[C@@H](Cc1ccc(F)c(F)c1)C(=O)NCc1ccc2c(N)nccc2c1 [Example 3.03]
33 | 3 to 10 µM | – | Cc1nocc1C(=O)N[C@@H](Cc1ccc(F)c(F)c1)C(=O)NCc1ccc2c(N)nccc2c1 [Example 0.21]
34 | 10 to 40 µM | – | Nc1nccc2cc(CNC(=O)[C@H](Cc3ccc(F)c(F)c3)NC(=O)c3ccccc3N3CCOCC3)ccc12 [Example 0.04]
35 | 0.28 to 1 µM | – | Nc1nccc2cc(CNC(=O)[C@@H]3CCCN3C(=O)[C@H](N)CCc3ccccc3)ccc12 [Example 17.02]
36 | 10 to 40 µM | – | Cc1nc2ccncc2cc1C(=O)N[C@@H](Cc1ccc(F)c(F)c1)C(=O)NCc1ccc2c(N)nccc2c1 [Example 0.26]
37 | 3 to 10 µM | – | Cc1cc2ncc(C(=O)N[C@@H](Cc3ccc(F)c(F)c3)C(=O)NCc3ccc4c(N)nccc4c3)c(C)n2n1 [Example 0.36]
38 | 10 to 40 µM | – | Nc1nccc2cc(CNC(=O)[C@H](Cc3ccc(F)c(F)c3)NC(=O)CCc3nnc(-c4ccccc4)o3)ccc12 [Example 0.51]
39 | 10 to 40 µM | – | Nc1nccc2cc(CNC(=O)[C@H](Cc3ccc(F)c(F)c3)NC(=O)Cc3ccsc3)ccc12 [Example 3.26]
40 | 10 to 40 µM | – | Cc1nc(C(=O)N[C@@H](Cc2ccc(F)c(F)c2)C(=O)NCc2ccc3c(N)nccc3c2)c(C)o1 [Example 0.06]
41 | 3 to 10 µM | – | C[C@@H]1CCC[C@H](C)N1CC(=O)N[C@@H](Cc1ccc(Cl)cc1)C(=O)NCc1ccc2c(N)nccc2c1 [Example 3.12]
42 | 10 to 40 µM | – | C[C@@H]1CCC[C@H](C)N1CC(=O)N[C@@H](Cc1ccc(F)c(F)c1)C(=O)NCc1ccc2c(cnn2C)c1 [Example 34.08]
43 | 10 to 40 µM | – | Nc1nccc2cc(CNC(=O)[C@H](Cc3ccc(F)c(F)c3)NC(=O)CCn3cc(C(F)(F)F)ccc3=O)ccc12 [Example 3.29]
44 | 10 to 40 µM | – | Nc1nccc2cc(CNC(=O)[C@H](Cc3ccc(F)c(F)c3)NC(=O)CCc3[nH]nc4c3CCCC4)ccc12 [Example 20.10]

Row | IC50 (class symbols) | IC50 (numeric bound instead of class symbol) | SMILES
45 | 10 to 40 µM | – | C[C@@H](C(=O)N[C@@H](Cc1ccc(F)c(F)c1)C(=O)NCc1ccc2c(N)nccc2c1)N(C)C [Example 5.104]
46 | 3 to 10 µM | – | CC(C)N[C@H](CCc1ccccc1)C(=O)N[C@@H](C)C(=O)NCc1ccnc(N)c1 [Example 9.09]
47 | 10 to 40 µM | – | CCC(C)[C@H](C(=O)NCC(=O)NCc1ccc2c(N)nccc2c1)N(C)C (some centres unmarked) [Example 18.103]
48 | 0.28 to 1 µM | – | C[C@@H]1CC[C@H](C)N1CC(=O)N[C@@H](Cc1ccc(F)c(F)c1)C(=O)NCc1ccc2c(N)nccc2c1 [Example 3.20]
49 | 10 to 40 µM | – | Nc1nccc2cc(CNC(=O)[C@H](Cc3ccc(F)c(F)c3)NC(=O)c3cccc(Cn4cccn4)c3)ccc12 [Example 0.68]
50 | 10 to 40 µM | – | Nc1nccc2cc(CNC(=O)[C@H](Cc3ccc(F)c(F)c3)NC(=O)c3ccc(-n4ccnc4)nc3)ccc12 [Example 0.10]
51 | 10 to 40 µM | – | CCn1nc(C)cc1C(=O)N[C@@H](Cc1ccc(F)c(F)c1)C(=O)NCc1ccc2c(N)nccc2c1 [Example 0.55]
52 | 3 to 10 µM | – | C[C@@H]1CCC[C@H](C)N1CC(=O)N[C@@H](Cc1ccc(F)c(F)c1)C(=O)NCc1cnc2[nH]ccc2c1 [Example 34.06]
53 | 0.28 to 1 µM | – | C[C@H]1CC[C@H](C)N1CC(=O)N[C@@H](Cc1ccc(F)c(F)c1)C(=O)NCc1ccc2c(N)nccc2c1 [Example 3.19]
54 | 10 to 40 µM | – | CC(C)N1CCC[C@@H]1C(=O)N[C@@H](Cc1ccc(F)c(F)c1)C(=O)NCc1ccc2c(cnn2C)c1 [Example 44.06]
55 | 3 to 10 µM | – | Cc1cnc(C(=O)N[C@@H](Cc2ccc(F)c(F)c2)C(=O)NCc2ccc3c(N)nccc3c2)cn1 [Example 0.22]
56 | – | > 12.7 µM | Cc1nc(C(F)(F)F)ccc1C(=O)N[C@@H](Cc1ccc(F)c(F)c1)C(=O)NCc1ccc2c(N)nccc2c1 [Example 0.63]
57 | 3 to 10 µM | – | Nc1nccc2cc(CNC(=O)[C@H](Cc3ccc(F)c(F)c3)NC(=O)C3=CCC(=O)NN3)ccc12 [Example 0.44]
58 | 10 to 40 µM | – | CN(C)[C@H](CCc1ccccc1)C(=O)N[C@@H](Cc1ccc(F)c(F)c1)C(=O)NCc1ccc2c(N)nccc2c1 [Example 0.19]
59 | 10 to 40 µM | – | Nc1nccc2cc(CNC(=O)[C@H](Cc3ccc(F)c(F)c3)NC(=O)c3ccccc3)ccc12 [Example 0.34]
60 | 10 to 40 µM | – | C[C@@H]1CCC[C@H](C)N1CC(=O)N[C@@H](Cc1ccc(F)c(F)c1)C(=O)NCc1ccc2[nH]ncc2c1 [Example 34.07]
61 | 10 to 40 µM | – | COc1ccc(OCCC(=O)N[C@@H](Cc2ccc(F)c(F)c2)C(=O)NCc2ccc3c(N)nccc3c2)cc1 [Example 20.01]
62 | 10 to 40 µM | – | Nc1nccc2cc(CNC(=O)[C@H](Cc3ccc(F)c(F)c3)NC(=O)C3CCC(O)CC3)ccc12 (some centres unmarked) [Example 0.56]
63 | 10 to 40 µM | – | Nc1nccc2cc(CNC(=O)[C@H](Cc3ccc(F)c(F)c3)NC(=O)CCn3cncn3)ccc12 [Example 20.07]
64 | 10 to 40 µM | – | C[C@@H]1CCC[C@H](C)N1CC(=O)N[C@@H](Cc1ccc(F)c(F)c1)C(=O)NCc1ccnc(N)c1 [Example 34.04]
65 | 3 to 10 µM | – | Nc1nccc2cc(CNC(=O)[C@H](Cc3ccc(F)c(F)c3)NC(=O)c3ccn[nH]3)ccc12 [Example 0.29]
